Assay results: US20250367215A1, “PHARMACEUTICAL COMBINATION COMPRISING A CHOLANE DERIVATIVE AND A STATIN OR URSODESOXYCHOLIC ACID” (BAR PHARMACEUTICALS SOCIETA' A RESPONSABILITA' LIMITATA, priority 2022, published 2025)

Test system: C57BL6 mice
Experiment: HFD-F diet-induced NASH mouse model, BAR502 and UDCA (Example 2)
Assay type: in vivo
Conditions: C57BL6 mice on HFD-F for 61 days; oral from day 6; UDCA 30 mg/kg alone or with BAR502 30 mg/kg
Text: The mouse model of Example 1 was used once again. Using this mouse model, the inventors therefore investigated the effectiveness of the association between BAR502 and UDCA in preventing the development of NASH.

C[C@H](CCC(=O)O)[C@H]1CC[C@H]2[C@@H]3[C@@H](O)C[C@@H]4C[C@H](O)CC[C@]4(C)[C@H]3CC[C@]12C [UDCA, ursodesoxycholic acid]
effect on insulin resistance, glucose load curve (OGTT) (FIG. 9): beneficial effects on insulin resistance
